In patent US20070208085A1 (SOMANTA LIMITED, priority 2006, published 2007):
Read-outs that look alike come from different tables or passages of the source.

How the values were obtained:
[1] = test system: KM 12; assay: NCI human cell line panel cytotoxicity; format: cell-based; details: KM12, Colon, read-out: Log IC50 (converted)
Experimental: (§1) To identify the activity of the compound of formula IV in additional cell lines, an NCI human cell line panel was screened for sensitivity to the compound. Cytotoxicity was evaluated for chloroethylaminoanthraquinone compounds synthesized as described in EXAMPLE 1, using an in vitro cell based assay as described in Pors et al., Mol. Cancer Ther., 2:607-610 (2003).
(§2) Human tumor cell lines from the NCI human cell line panel (Table 2) were tested in the assay.
(§3) Growth inhibition was determined, and was expressed as the concentration (nM) required to inhibit cell growth by 50% (IG50). […] In particular, excellent activity was observed against CNS, colon, NSCLC and renal cancer cell lines. […] Standard methods were used for MTT results (Monks A et. al., J. Natl Cancer Inst. 1991 June 5;83(11):757-66).

[2] = test system: HCT-116; assay: NCI human cell line panel cytotoxicity; format: cell-based; details: Colon
Experimental: as §1, §2, §3

[3] = test system: RPMI 8226; assay: NCI human cell line panel cytotoxicity; format: cell-based; details: Leuk
Experimental: as §1, §2, §3

[4] = test system: NCI-H226; assay: NCI human cell line panel cytotoxicity; format: cell-based; details: NSCLC
Experimental: as §1, §2, §3

[5] = test system: HT-29; assay: NCI human cell line panel cytotoxicity; format: cell-based; details: Colon
Experimental: as §1, §2, §3

[6] = test system: MDA-MB-435; assay: NCI human cell line panel cytotoxicity; format: cell-based; details: Breast
Experimental: as §1, §2, §3

[7] = test system: 786-0; assay: NCI human cell line panel cytotoxicity; format: cell-based; details: Renal
Experimental: as §1, §2, §3

[8] = test system: HS 578T; assay: NCI human cell line panel cytotoxicity; format: cell-based; details: Breast
Experimental: as §1, §2, §3

[9] = test system: SK MEL 5; assay: NCI human cell line panel cytotoxicity; format: cell-based; details: Melanoma
Experimental: as §1, §2, §3

[10] = test system: DU145; assay: NCI human cell line panel cytotoxicity; format: cell-based; details: DU-145, Prostate
Experimental: as §1, §2, §3

[11] = test system: ACHN; assay: NCI human cell line panel cytotoxicity; format: cell-based; details: Renal
Experimental: as §1, §2, §3

[12] = test system: U251; assay: NCI human cell line panel cytotoxicity; format: cell-based; details: U-251, CNS
Experimental: as §1, §2, §3

[13] = test system: LOX IMVI; assay: NCI human cell line panel cytotoxicity; format: cell-based; details: Melanoma
Experimental: as §1, §2, §3

[14] = test system: doxorubicin-resistant and cisplatin-resistant tumor cell lines; details: cited from earlier work
[15] = test system: NCI human cell lines; assay: NCI human cell line panel, mean over cell lines; format: cell-based; details: mean against the NCI human cell lines (28 tested)
Experimental: as §1, §2, §3

[16] = test system: A2780 human ovarian carcinoma cell line; details: cited from earlier work
[17] = test system: human osteosarcoma cell line (U-2 OS); assay: Cell cycle events by flow cytometry and timelapse, cyclin B1-GFP reporter; format: cell-based; details: U2-OS
Experimental: The U2 OS cells were stably transfected with a Green Fluorescent Protein tagged Cyclin B1 reporter and maintained at 37° C. and 5% CO2 in McCoys 5A modified medium (Sigma) supplemented with 2 mM glutamine, 100 units/ml penicillin, 100 μg/ml streptomycin, 10% fetal calf serum and 1000 μg/ml geneticin. Appropriate dilutions were added to the wells to obtain treatment regimes of 0, 10 and 100 nM of the experimental compound.
The cells were plated in a 6 well plate (density ˜15-20%). Each experiment consisted of the paired drug treatment at the appropriate dose added to the cells and the plate was placed on a stage of an inverted microscope in a sealed environment (37° C./humidified 5% CO2), and the entire apparatus was situated on a vibration-free table. Three fields were selected per well to triplicate the sampling for each experiment. Images at 10× magnification and were taken every 15 minutes over 3 days using a Cohu cooled CCD camera and the programme AQM Advance 6 to store the images. The images were viewed using the Metamorph programme.
Experimental data derived from the timelapse were analyzed by comparing the morphology of the cells and the relative growth rates per treatment regimen. This was achieved by counting the number of live cells per field every 12 hours (since a normal cell has a generation time of 24 hours) and plotting the data into relative growth curves. The initial rate of growth (between time points 0-12 and 12-24) was then calculated.
Samples by flow cytometry. U-2 OS cells were treated with the compound in a 6 well plate in an incubator over 2 days. Cells were then extracted from the plate, and Draq5 added to stain the DNA before they were analyzed using a Becton Dickinson FACS Vantage flow cytometer. The flow data was gated for intact cells, and the DRAQ5 levels (indicator of DNA content) were extracted.
DNA content and Cyclin B1 expression were measured using flow cytometry and a p53 functional human osteosarcoma cell line (U2-OS) as described above.

**Q.** What does the source list for `CN(C)CCNc1ccc(NCCN(CCCl)CCCl)c2c1C(=O)c1c(O)ccc(O)c1C2=O` [Compound IV]?
**A.** IC50 [1]: 138 nM; IC50 ([2]; read-out: IC50 nM): < 10 nM; IC50 ([2]; read-out: IC50): < 10 nM; IC50 ([2]; read-out: Log IC50 (converted)): ≤ 10 nM; IC50 ([3]; read-out: IC50 nM): < 10 nM; IC50 ([3]; read-out: IC50): < 10 nM; IC50 ([3]; read-out: Log IC50 (converted)): ≤ 10 nM; IC50 ([4]; read-out: IC50 nM): 54 nM; IC50 ([4]; read-out: IC50): 53.7 nM; IC50 ([4]; read-out: Log IC50 (converted)): 53.7 nM; IC50 ([5]; read-out: IC50 nM): < 10 nM; IC50 ([5]; read-out: IC50): < 10 nM; IC50 ([5]; read-out: Log IC50 (converted)): ≤ 10 nM; IC50 ([6]; read-out: IC50 nM): 21 nM; IC50 ([6]; read-out: IC50): 20.9 nM; IC50 ([6]; read-out: Log IC50 (converted)): 20.9 nM; IC50 ([7]; read-out: IC50 nM): < 10 nM; IC50 ([7]; read-out: IC50): < 10 nM; IC50 ([7]; read-out: Log IC50 (converted)): ≤ 10 nM; IC50 ([8]; read-out: IC50 nM): 525 nM; IC50 ([8]; read-out: IC50): 525 nM; IC50 ([8]; read-out: Log IC50 (converted)): 525 nM; IC50 ([9]; read-out: IC50 nM): 71 nM; IC50 ([9]; read-out: IC50): 70.8 nM; IC50 ([9]; read-out: Log IC50 (converted)): 70.8 nM; IC50 ([10]; read-out: IC50 nM): 50 nM; IC50 ([10]; read-out: IC50): 50.1 nM; IC50 ([10]; read-out: Log IC50 (converted)): 50.1 nM; IC50 ([11]; read-out: IC50 nM): < 10 nM; IC50 ([11]; read-out: IC50): < 10 nM; IC50 ([11]; read-out: Log IC50 (converted)): ≤ 10 nM; IC50 ([12]; read-out: IC50 nM): 19 nM; IC50 ([12]; read-out: IC50): 19.1 nM; IC50 ([12]; read-out: Log IC50 (converted)): 19.1 nM; IC50 ([13]; read-out: IC50 nM): < 10 nM; IC50 ([13]; read-out: IC50): < 10 nM; IC50 ([13]; read-out: Log IC50 (converted)): ≤ 10 nM; cellular drug resistance ([14]; Pors et al., 2003): very low resistance; cytotoxicity against resistant cell lines ([14]; doxorubicin-resistant and cisplatin-resistant tumor cell lines, in vitro): maintained potent cytotoxicity; resistance relative to doxorubicin ([14]; fold less resistant, Pors et al., 2003): 250 fold; resistance relative to the other chloroethylaminoanthraquinones tested ([14]; fold less, Pors et al., 2003): 20-150 fold; IC50 [15]: 49 nM; cytotoxicity [16]: potent cytotoxicity; G2 arrest [17]: limited expression of G2 arrest; polyploidy on escape from G2 arrest (B1 cyclin tracking) [17]: forced some cells to enter polyploidy via an aberrant mitosis; pan-cell cycle progression and mitotic commitment ([17]; compared to untreated cells): slowed pan-cell cycle progression and mitotic commitment; induction of apoptosis ([17]; immediate (<24 h)): without any immediate (<24 h) induction of apoptosis
